In patent US20240391923A1, “METHIONINE ADENOSYLTRANSFERASE 2A INHIBITOR FOR TREATING MTAP DELETION-TYPE CANCER” (SUZHOU GENHOUSE BIO CO., LTD., priority 2022, published 2024):
Like-named read-outs stand apart in the source and are kept apart here.

Columns and labels:
[1] = test system: SDMA in human colon cancer cell line HCT116; assay: Cell symmetric dimethylarginine (SDMA) test, In-cell Western, HCT116 (MTAP wild-type); assay type: cell-based; settings: Homo sapiens, HCT-116, 96 h
Procedure, shortened: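 SDMA level, an indirect readout of cellular MAT2A inhibition, measured by In-cell Western as background-subtracted 800/700 nm signal against DRAQ5. Cells exposed 4 days to six 1:4-diluted doses from 6 μM; inhibition relative to DMSO, IC50 from sigmoidal fit.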

Hut-78 cell strain = assay: Tumor cell proliferation inhibition assay (CellTiter-Glo), Hut-78; assay type: cell-based; settings: Homo sapiens, HuT78, 120 h, Hut-78 cells, 5-day treatment
Procedure, shortened: (§1)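 Cells seeded, then after 24 h treated with 10-point 1:3 dilutions from 10 μM top concentration, DMSO control. Cultured 5 days at 37 °C/5% CO2; growth inhibition from ATP level by CellTiter-Glo luminescence.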

[2] = test system: HCT116-MTAP wild-type (+/+)-cell strain; assay: Tumor cell proliferation inhibition assay (CellTiter-Glo), HCT116-MTAP wild-type (+/+); assay type: cell-based; settings: Homo sapiens, 120 h, HCT116-MTAP wild-type (+/+) cells, 5-day treatment
Procedure, shortened: as §1

[3] = test system: HCT116-MTAP-knockout (−/−) cell strain; assay: Tumor cell proliferation inhibition assay (CellTiter-Glo), HCT116-MTAP-knockout (-/-); assay type: cell-based; settings: Homo sapiens, 120 h, HCT116-MTAP-knockout (−/−) cells, 5-day treatment
Procedure, shortened: as §1

[4] = Saturation solubility of samples in FaSSIF solution; assay type: physicochemical; settings: FaSSIF pH 6.5, room temperature overnight
Method: About 0.21 g of sodium hydroxide, about 2.24 g of sodium dihydrogen phosphate dihydrate, and 3.09 g of sodium chloride were weighed out and dissolved in 500 mL of water, and then the pH was adjusted to 6.5 with 1 N sodium hydroxide or 1 N hydrochloric acid. 112 mg of FaSSIF solid was weighed out and placed in a 50 mL volumetric flask, and the above buffer was added for dissolution, diluted to volume, mixed well, and left to stand at room temperature for 2 h or more.
• Test sample: about 1 mg of the test sample was taken, and 1 mL of FaSSIF solution was added. The mixture was stirred at room temperature overnight and centrifuged, and the supernatant was collected and injected for analysis. • Control substance solution: about 1.5 mg of the test sample was precisely weighed out and placed in a 50 mL volumetric flask, and DMF was added for dissolution, diluted to volume, and mixed well.
• Mobile phase A: 1000 mL of purified water was accurately weighed out, 1 mL of formic acid was added, and the mixture was mixed well and degassed with ultrasonic. • Mobile phase B: acetonitrile
The peak of the main component of the control substance and the peak of the test substance consistent with the retention time of the peak of the main component of the control substance were integrated, and the concentration thereof in the FaSSIF solution was calculated according to external standard method.

[5] = IC50 score class, read-out: Cell 96 h SDMA Inhibition (HCT116-MTAP+/+) (score)
[6] = read-out: Cell 96 h SDMA inhibition (HCT116-MTAP+/+)
[7] = IC50 score, read-out: Tumor cell 5-day relative growth inhibition (Hut-78) (nM), score
[8] = IC50 value, read-out: Tumor cell 5-day relative growth inhibition (Hut-78)
[9] = IC50 score, read-out: Tumor cell 5-day relative growth inhibition (HCT116-MTAP+/+) (nM), score
[10] = IC50 value, read-out: Tumor cell 5-day relative growth inhibition (HCT116-MTAP+/+)
[11] = IC50 score, read-out: Tumor cell 5-day relative growth inhibition (HCT116-MTAP−/−) (nM), score
[12] = IC50 value, read-out: Tumor cell 5-day relative growth inhibition (HCT116-MTAP−/−)

| IC50 [1, 5] | IC50 [1, 6] | IC50 (Hut-78 cell strain; [7]) | IC50 (Hut-78 cell strain; [8]) | IC50 [2, 9] | IC50 [2, 10] | IC50 [3, 11] | IC50 [3, 12] | FaSSIF (pH = 6.5) (μg/mL) [4] | SMILES |
| --- | --- | --- | --- | --- | --- | --- | --- | --- | --- |
| < 200 nM | 99.2 nM | < 500 nM | 17.4 nM | < 500 nM | 191 nM | < 500 nM | 9.6 nM | – | Cc1ncccc1-n1c(=O)c2nn(C)cc2c2ccc(C(F)(F)F)nc21 (single isomer, unassigned) [Compound B180] |
| 1000 to 3000 nM | 1420 nM | < 500 nM | 145 nM | 500 to 2000 nM | 1650 nM | < 500 nM | 383 nM | – | Cn1cc2c(n1)c(=O)n(-c1cccnc1)c1cc(Cl)ccc21 [Compound B12] |
| 200 to 1000 nM | 467 nM | < 500 nM | 37.1 nM | 500 to 2000 nM | 1000 nM | < 500 nM | 12.6 nM | 20.9 μg/mL | Cn1cc2c(n1)c(=O)n(-c1cccc3[nH]ncc13)c1cc(Cl)ccc21 [Compound B60] |
| 1000 to 3000 nM | 1030 nM | < 500 nM | 135 nM | – | – | – | – | – | Cn1cc2c(n1)c(=O)n(-c1cccc(O)c1)c1nc(C(F)(F)F)ccc21 [Compound B148] |
| 1000 to 3000 nM | 1060 nM | < 500 nM | 184 nM | ≥ 2000 nM | ≥ 2000 nM | < 500 nM | 59.1 nM | – | O=c1c2n[nH]cc2c2ccc(C(F)(F)F)nc2n1-c1cccnc1 [Compound B178] |
| 200 to 1000 nM | 480 nM | < 500 nM | 36.5 nM | 500 to 2000 nM | 1340 nM | < 500 nM | 14.6 nM | 20.7 μg/mL | Cn1cc2c(n1)c(=O)n(-c1cccc3[nH]ncc13)c1nc(C(F)(F)F)ccc21 [Compound B181] |
| > 3000 nM | > 3000 nM | 500 to 2000 nM | 1220 nM | ≥ 2000 nM | 7340 nM | 500 to 2000 nM | 1860 nM | 17.6 μg/mL | Cn1cc2c(n1)c(=O)n(-c1ccccc1Cl)c1nc(C(F)(F)F)ccc21 [Compound B182] |
| 1000 to 3000 nM | 2160 nM | – | – | 500 to 2000 nM | 464 nM | < 500 nM | 27.5 nM | 248 μg/mL | Cn1cc2c(n1)c(=O)n(-c1cccc3[nH]ncc13)c1cc(Cl)c(F)cc21 [Compound B257] |
| > 3000 nM | > 10000 nM | – | – | ≥ 2000 nM | > 10000 nM | < 500 nM | 235 nM | 131 μg/mL | Cn1cc2c(n1)c(=O)n(-c1cccc3[nH]ncc13)c1cc(Cl)c(C#N)cc21 [Compound B258] |
| > 3000 nM | > 10000 nM | – | – | ≥ 2000 nM | > 10000 nM | < 500 nM | 394 nM | 36 μg/mL | Cn1cc2c(n1)c(=O)n(-c1cccnc1C1CC1)c1cc(Cl)c(F)cc21 [Compound B340] |
